Tests used:
CAR-γδT cells [1] = assay: Effect of MTX concentration on proliferation of CAR-γδT cells in vitro (AOPI counting); type: cell-based, human
Procedure: 50 mL of fresh peripheral blood of volunteers was extracted, mixed with lymphocyte separation medium, and then peripheral blood mononuclear cells (PBMC) were separated by density gradient centrifugation. The isolated lymphocytes were overnight cultured in RPMI 1640 medium, supplemented with L-glutamine (2 mM, Sigma-Aldrich), penicillin (100 IU/mL)/streptomycin (100 μg/mL) (Sigma-Aldrich, Missouri, USA), 10% serum (Gibco, Massachusetts, USA), zoledronic acid (5 μM, Actavis, New Jersey, USA), IL-2 (100 IU/mL; Aldesleukin, Novartis, Frimley, UK). The γδT cells selected above were transduced with lentiviral vector expressing an anti-CLL1 CAR and DHFR L22F/F31S at a multiplicity of infection (MOI) of 5. After 48 hours of transduction, IL-2 (100 IU/mL) was added every 2-3 days to expand T cells expressing the anti-CLL1 CAR (hereinafter referred to as CAR-γδT cells).
Cultured with the addition of methotrexate (MTX) at the concentrations of 0 μM, 0.01 μM, 0.05 μM, 0.1 μM, 1 μM, or 2 μM, the cell number of LUCAR-20SD cells at day0 day3 day6 day9, day 12, and the cell number of CAR-γδT cells at day0 day2 day5 day7 were counted by AOPI. Cell proliferation curves were plotted separately.

LUCAR-20SD cells = assay: In vitro mixed lymphoid (MLR) model with LUCAR-20SD cells, UnT and Raji cells: graft LUCAR-20SD cells; type: cell-based, human; conditions: 0.05 μM, 1 μM, 2 μM MTX
Procedure: To evaluate the ability of LUCAR-20SD cells to tolerate allogeneic T cell rejection, an in vitro mixed lymphoid (MLR) model was established.
Using the T cells from a random healthy donor (B donor), LUCAR-20SD cells were prepared following the method in Example 1, as the graft cells. Un-transduced T cells (UnT) from another random healthy donor (Adonor) were also prepared, as the host cells.
The cell density of CD20 positive cells (lymphoma cell lines Raji, ATCC, CCL-86) was adjusted to 1×10^6 cells/mL. Raji cells were treated with 20 μg/mL mitomycin at 37° C. for 3 h, washed three times with 10 mL DPBS, and were resuspended in the culture medium. 20×10^6 untransduced T cells (UnT, T cell donor A), 1×10^6 LUCAR-20SD cells (T cell donor B), and 5×10^6 treated lymphoma cells Raji were mixed and cultured in the medium. The cell mixture was divided into 4 groups, and 0 μM MTX, 0.05 μM MTX, 1 μM MTX, or 2 μM MTX was added, respectively. […] According to the formula: fold change of cell number (UnT)=[cell number counted by AOPI×(CAR-CD5+%)]/20, fold change of cell number (LUCAR-20SD cells)=[cell number counted by AOPI×(CAR+CD5+%)]/1, the cell proliferation curves of UnT and LUCAR-20SD cells were plotted.

CAR-γδT cells [2] = assay: In vitro mixed lymphoid (MLR) model with CAR-γδT cells, UnT and U937 cells: graft CAR-γδT cells; type: cell-based, human; conditions: 0.05 μM and 0.5 μM MTX
Procedure: To evaluate the ability of γδ T cells to tolerate allogeneic T cell rejection, an in vitro mixed lymphoid (MLR) model was established.
Using the T cells from a random healthy donor (B donor), CAR-γδT cells were prepared following the method in Example 1, as the graft cells. Un-transduced T cells (UnT) from another random healthy donor (T cell donor A) were also prepared, as the host cells.
The density of CLL1 positive human lymphoma cells (U937) was adjusted to 1×10^6 cells/mL. U937 cells were treated with 20 μg/mL mitomycin at 37° C. for 3 h, washed three times with 10 mL DPBS, and suspended in the culture medium. 20×10^6 untransduced T cells (UnT, T cell donor A), 1×10^6 CAR-γδT cells (T cell donor B), and 5×10^6 treated human lymphoma cells U937 were mixed and cultured in the medium. The cell mixture was divided into 3 groups, and 0 μM, 0.05 μM MTX, or 0.5 μM MTX was added, respectively. […] CAR-γδT cells were stimulated repeatedly with U937 cells at day0, day4, day7 at an E/T ratio of 1:1 According to the formula: fold change of cell number (UnT)=[cell number counted by AOPI×(CD3-/TCR VY9+%)]/20, fold change of cell number (CAR-γδT)=[cell number counted by AOPI×(CD3+/TCR Vγ9+%)]/1, the cell proliferation curves of UnT and CAR-γδT cells were plotted.

LUCAR-GC cells = assay: Expansion of transplanted LUCAR-GC cells in peripheral blood of NUGC4 xenograft mice (hCD45+%/live); type: in vivo, NCG immunodeficient mice; human cells; conditions: 22.635 mg/kg MTX i.p.
Text: Severely immunodeficient NCG mice were used for in vivo efficacy evaluation. On day −14 before treatment, NCG immunodeficient mice were inoculated subcutaneously with tumor cells (3×10^6 human gastric cancer cells NUGC4/mouse). The xenografted mice were divided into 5 groups ([…], G3, G4 and G5) on day 0, and received a single intravenous injection of HBSS (G1, G5), untransduced T cells (UnT) (G2, at a dose of 3.6×10^6 cells/mouse), LUCAR-GC cell preparation (G3 and G4, at a dose of 1×10^6 CAR+ cells/mouse). Mice in G4 and G5 groups were additionally given 22.635 mg/kg MTX by intraperitoneal injection on day5, day10, day 15, day20, day25, day30, day35, respectively. […] During the experiment, animal status, survival, tumor volume and body weight were measured twice a week. Blood was collected from the mouse eyeballs every week to separate cells, and then resuspended in DPBS with 1 μL of FITC anti human CD45 (Biolegend, 304038). The proportion of transplanted cells (hCD45+%/live) in the peripheral blood of mice was counted.

CN(Cc1cnc2nc(N)nc(N)c2n1)c1ccc(C(=O)N[C@@H](CCC(=O)O)C(=O)O)cc1 [MTX, methotrexate]
proliferation of CAR-γδT cells compared with 0 μM MTX (CAR-γδT cells [1]; 0.01 μM to 0.1 μM MTX, day 7, p>0.05): not significantly different
proliferation of CAR-γδT cells compared with 0 μM MTX (CAR-γδT cells [1]; 1 μM MTX and 2 μM MTX, day 7, p<0.05, dose-dependent): significantly decreased
minimal effective concentration (CAR-γδT cells [1]; Homo sapiens, 168 h, day 7, read-out: MTX concentration that affects the proliferation of CAR-γδT cells): ≥ 1 µM
protective effect on heterologous LUCAR-20SD cells (LUCAR-20SD cells): good protective effect on heterologous LUCAR-20SD cells
protective effect on heterologous CAR-γδT cells (CAR-γδT cells [2]): good protective effect on heterologous CAR-γδT cells
expansion of LUCAR-GC cells in peripheral blood, presence or absence of MTX (LUCAR-GC cells): no significant difference in the expansion of LUCAR-GC cells

— patent US20260345609A1, “METHODS FOR PROMOTING PERSISTENCE OF CELL THERAPY” (Legend Biotech Ireland Limited, priority 2022, published 2026)
